Results as given in US9186338B2, “Solubility enhancer and use thereof” (priority 2005, dated 2015).

From the text: In accordance with yet another aspect of the present invention, there is provided a method for determining the solubility of said drugs, wherein the method comprises incremental addition of said drugs taken from stock to said solubility enhancer, shaking the resultant in an ultrasonic bath to obtain clear solution and determining the solubility.
The solutions of Isotretinoin were made by incremental addition technique, i.e. by adding portions of the drug from pre-weighed stock (Isotretinoin) to known volume of the alkanamide solution and shaking in an ultrasonic bath till the solution was clear. Thereafter the second weight was recorded & solubility was determined.
(§1) Thereafter the second weight was recorded & solubility was determined.
as §1

amount of drug solubilized in 1 ml of Hexanamide: 206 mg
amount of drug solubilized in 1 ml of Octanamide: 139.2 mg
solubility in Hexanamide: 20.6 % w/v
solubility in Octanamide: 13.92 % w/v
SMILES: CC1=C(/C=C/C(C)=C/C=C/C(C)=C\C(=O)O)C(C)(C)CCC1 [Isotretinoin]
